From article PMC11287240 (RSC Advances, 2024) come the findings set out here.

Molecules are shown by their SMILES. Where two headings read alike, the source gives them in different places.

Assay [1] has as its target hBACE 1 (Homo sapiens, UniProt P56817). Nature of the assay: BACE 1 FRET inhibition assay. The format is biochemical. To be noted: human BACE 1.
Assay [2] has as its target EeAChE (Electrophorus electricus acetylcholinesterase) (Electrophorus electricus, UniProt O42275). Nature of the assay: AChE inhibition assay. The format is biochemical, electric eel.
Setting [3] is: hBACE 1 IC50 (μM) ± SD, mean ± SD, n = 3, FRET assay.

EeAChE (Electrophorus electricus acetylcholinesterase), sequence (O42275 24-633): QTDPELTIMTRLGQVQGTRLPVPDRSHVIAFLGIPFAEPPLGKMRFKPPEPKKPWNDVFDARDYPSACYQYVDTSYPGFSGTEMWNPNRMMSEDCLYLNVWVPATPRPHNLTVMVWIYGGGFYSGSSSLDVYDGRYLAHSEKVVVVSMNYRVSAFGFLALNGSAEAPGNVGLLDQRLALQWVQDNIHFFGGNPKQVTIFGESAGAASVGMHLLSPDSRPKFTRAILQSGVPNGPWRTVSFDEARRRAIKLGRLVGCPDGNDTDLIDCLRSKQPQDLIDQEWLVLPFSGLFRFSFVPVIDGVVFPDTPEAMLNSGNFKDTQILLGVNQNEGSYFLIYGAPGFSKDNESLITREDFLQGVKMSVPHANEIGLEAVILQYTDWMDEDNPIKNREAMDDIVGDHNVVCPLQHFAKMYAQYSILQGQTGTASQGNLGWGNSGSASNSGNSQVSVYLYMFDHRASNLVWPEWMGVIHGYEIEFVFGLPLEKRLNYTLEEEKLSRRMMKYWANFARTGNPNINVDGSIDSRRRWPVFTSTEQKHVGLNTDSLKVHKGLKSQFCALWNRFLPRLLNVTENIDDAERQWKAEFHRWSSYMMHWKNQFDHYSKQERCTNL
hBACE 1, sequence (P56817 46-501): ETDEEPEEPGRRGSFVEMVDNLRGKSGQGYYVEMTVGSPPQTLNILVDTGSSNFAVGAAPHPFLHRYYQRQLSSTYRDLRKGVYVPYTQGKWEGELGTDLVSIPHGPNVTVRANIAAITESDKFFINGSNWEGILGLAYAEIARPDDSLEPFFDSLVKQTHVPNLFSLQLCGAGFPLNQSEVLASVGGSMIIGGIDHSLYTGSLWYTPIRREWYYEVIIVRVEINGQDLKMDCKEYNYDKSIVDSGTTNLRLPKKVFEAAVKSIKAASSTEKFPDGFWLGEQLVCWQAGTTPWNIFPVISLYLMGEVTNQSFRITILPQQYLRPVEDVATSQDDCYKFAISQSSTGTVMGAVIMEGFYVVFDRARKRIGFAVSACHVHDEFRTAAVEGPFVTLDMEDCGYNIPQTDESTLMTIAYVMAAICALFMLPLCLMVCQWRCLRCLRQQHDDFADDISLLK

Broadly, the IC50 is the midpoint of a concentration-inhibition curve. Take `[H]/N=C(/N)NN=C(/C=C/c1ccc(N(C)C)cc1)c1cn(Cc2ccccc2)c2ccccc12` [Compound 1g, (Z)-2-((E)-1-(1-Benzyl-1H-indol-3-yl)-3-(4-(dimethylamino)phenyl)allylidene)hydrazine-1-carboximidamide]: the results for the IC50 in assay [1] (setting [3]), in assay [1] (hBACE 1 PIC50 (μM)) and in assay [2] were 89 ± 2.29 µM, 89.1 µM and 78.2 ± 2.28 µM, respectively.

Regarding `[H]/N=C(/N)NN=C(/C=C/c1ccccc1)c1cn(Cc2ccc(Cl)cc2)c2ccccc12` [Compound 2f, (Z)-2-((E)-1-(1-(4-Chlorobenzyl)-1H-indol-3-yl)-3-phenylallylidene)hydrazine-1-carboximidamide], the IC50 in assay [1] (setting [3]) was 213 ± 2.26 µM; in assay [1] (hBACE 1 PIC50 (μM)) it was 214 µM; in assay [2], 42.8 ± 2.79 µM.

Take `[H]/N=C(/N)NN=C(/C=C/c1ccccc1)c1cn(Cc2ccccc2C#N)c2ccccc12` [Compound 2e, (Z)-2-((E)-1-(1-(2-Cyanobenzyl)-1H-indol-3-yl)-3-phenylallylidene)hydrazine-1-carboximidamide]: the values for the IC50 in assay [1] (setting [3]), in assay [1] (hBACE 1 PIC50 (μM)) and in assay [2] were 197 ± 2.42 µM, 195 µM and 44.02 ± 0.19 µM, respectively.

On to `[H]/N=C(/N)NN=C(/C=C/c1cccc(Br)c1)c1cn(Cc2ccccc2)c2ccccc12` [Compound 1h, (Z)-2-((E)-1-(1-Benzyl-1H-indol-3-yl)-3-(3-bromophenyl)allylidene)hydrazine-1-carboximidamide], for which the values for the IC50 in assay [1] (setting [3]), in assay [1] (hBACE 1 PIC50 (μM)) and in assay [2] were 15.1 ± 0.74 µM, 15.1 µM and 66.3 ± 1.72 µM, respectively.

With `[H]/N=C(/N)NN=C(/C=C/c1ccc(Br)cc1)c1cn(Cc2ccccc2)c2ccccc12` [Compound 1i, (Z)-2-((E)-1-(1-Benzyl-1H-indol-3-yl)-3-(4-bromophenyl)allylidene)hydrazine-1-carboximidamide], the IC50 in assay [1] (setting [3]) was 97.83 ± 0.31 µM; in assay [1] (hBACE 1 PIC50 (μM)), 97.7 µM; in assay [2], 73.1 ± 2.07 µM.

Consider `[H]/N=C(/N)NN=C(/C=C/c1ccccc1)c1cn(Cc2ccc(Br)cc2F)c2ccccc12` [Compound 2i, (Z)-2-((E)-1-(1-(4-Bromo-2-fluorobenzyl)-1H-indol-3-yl)-3-phenylallylidene)hydrazine-1-carboximidamide], for which the IC50 was 185.95 ± 0.07 µM in assay [1] (setting [3]), 186 µM in assay [1] (hBACE 1 PIC50 (μM)) and 42.6 ± 1.58 µM in assay [2].

Take `[H]/N=C(/N)NN=C(/C=C/c1cc(OC)ccc1OC)c1cn(Cc2ccccc2)c2ccccc12` [Compound 1j, (Z)-2-((E)-1-(1-Benzyl-1H-indol-3-yl)-3-(2,5-dimethoxyphenyl)allylidene)hydrazine-1-carboximidamide]: the IC50 in assay [1] (setting [3]) is 72.2 ± 1.76 µM; in assay [1] (hBACE 1 PIC50 (μM)), 72.4 µM; in assay [2] it was 61 ± 2.29 µM.

With `[H]/N=C(/N)NN=C(/C=C/c1ccc(C(C)(C)C)cc1)c1cn(Cc2ccccc2)c2ccccc12` [Compound 1b, (Z)-2-((E)-1-(1-Benzyl-1H-indol-3-yl)-3-(4-(tert-butyl)phenyl)allylidene)hydrazine-1-carboximidamide], the results for the IC50 in assay [1] (setting [3]), in assay [1] (hBACE 1 PIC50 (μM)) and in assay [2] were 97.4 ± 1.36 µM, 97.7 µM and 42.9 ± 0.48 µM, respectively.

Turning to `[H]/N=C(/N)NN=C(/C=C/c1ccc(C(C)(C)C)cc1)c1cn(Cc2ccc(C(C)(C)C)cc2)c2ccccc12` [Compound 3h, (Z)-2-((E)-1-(1-(4-(tert-Butyl)benzyl)-1H-indol-3-yl)-3-(4-(tert-butyl)phenyl)allylidene)hydrazine-1-carboximidamide], the IC50 in assay [1] (setting [3]) was 179.2 ± 0.78 µM; in assay [1] (hBACE 1 PIC50 (μM)), 178 µM; in assay [2], 55.7 ± 3.17 µM.

Consider `[H]/N=C(/N)NN=C(/C=C/c1ccc(C(C)(C)C)cc1)c1cn(Cc2ccc(Br)cc2)c2ccccc12` [Compound 3g, (Z)-2-((E)-1-(1-(4-Bromobenzyl)-1H-indol-3-yl)-3-(4-(tert-butyl)phenyl)allylidene)hydrazine-1-carboximidamide], for which the IC50 in assay [1] (setting [3]) was 178.2 ± 0.92 µM; in assay [1] (hBACE 1 PIC50 (μM)) it was 178 µM; in assay [2], 156 ± 2.62 µM.

As for `[H]/N=C(/N)NN=C(/C=C/c1ccc(C(F)(F)F)cc1)c1cn(Cc2ccc(CCCC)cc2)c2ccccc12` [Compound 3j, (Z)-2-((E)-1-(1-(4-Butylbenzyl)-1H-indol-3-yl)-3-(4-(trifluoromethyl)phenyl)allylidene)hydrazine-1-carboximidamide], the IC50 was 182.4 ± 1.41 µM in assay [1] (setting [3]), 182 µM in assay [1] (hBACE 1 PIC50 (μM)) and 13.4 ± 0.49 µM in assay [2].

As to `[H]/N=C(/N)NN=C(/C=C/c1ccc(OCc2ccccc2)cc1)c1cn(Cc2ccc(C)cc2)c2ccccc12` [Compound 3e, (Z)-2-((E)-3-(4-(Benzyloxy)phenyl)-1-(1-(4-methylbenzyl)-1H-indol-3-yl)allylidene)hydrazine-1-carboximidamide], the IC50 in assay [1] (setting [3]) was 107 ± 2.55 µM; in assay [1] (hBACE 1 PIC50 (μM)) it was 107 µM; in assay [2], 144 ± 1.77 µM.

As to `[H]/N=C(/N)NN=C(/C=C/c1ccccc1)c1cn(Cc2ccc(C(F)(F)F)cc2)c2ccccc12` [Compound 2b, (Z)-2-((E)-3-Phenyl-1-(1-(4-(trifluoromethyl)benzyl)-1H-indol-3-yl)allylidene)hydrazine-1-carboximidamide], the IC50 in assay [1] (setting [3]) is 102 ± 1.06 µM; in assay [1] (hBACE 1 PIC50 (μM)) it was 102 µM; in assay [2], 56 ± 2.44 µM.

In the case of `[H]/N=C(/N)NN=C(/C=C/c1ccccc1)c1cn(Cc2ccc(F)cc2C(F)(F)F)c2ccccc12` [Compound 2d, (Z)-2-((E)-1-(1-(4-Fluoro-2-(trifluoromethyl)benzyl)-1H-indol-3-yl)-3-phenylallylidene)hydrazine-1-carboximidamide], the IC50 in assay [1] (setting [3]) is 140.9 ± 1.06 µM; in assay [1] (hBACE 1 PIC50 (μM)) it was 141 µM; in assay [2] it was 169 ± 1.91 µM.

Turning to `[H]/N=C(/N)NN=C(/C=C/c1ccccc1)c1cn(Cc2cc(OC)cc(OC)c2)c2ccccc12` [Compound 2g, (Z)-2-((E)-1-(1-(3,5-Dimethoxybenzyl)-1H-indol-3-yl)-3-phenylallylidene)hydrazine-1-carboximidamide], the IC50 in assay [1] (setting [3]) is 83.4 ± 1.93 µM; in assay [1] (hBACE 1 PIC50 (μM)), 83.2 µM; in assay [2], 55.6 ± 0.72 µM.

With `[H]/N=C(/N)NN=C(/C=C/c1ccc(Cl)cc1)c1cn(Cc2ccccc2)c2ccccc12` [Compound 1q, (Z)-2-((E)-1-(1-Benzyl-1H-indol-3-yl)-3-(4-chlorophenyl)allylidene)hydrazine-1-carboximidamide], the figures for the IC50 in assay [1] (setting [3]), in assay [1] (hBACE 1 PIC50 (μM)) and in assay [2] were 16.5 ± 0.39 µM, 16.6 µM and 82.6 ± 1.92 µM, respectively.

For `[H]/N=C(/N)NN=C(/C=C/c1ccc(F)c(F)c1)c1cn(Cc2ccc(C(C)(C)C)cc2)c2ccccc12` [Compound 3d, (Z)-2-((E)-1-(1-(4-(tert-Butyl)benzyl)-1H-indol-3-yl)-3-(3,4-difluorophenyl)allylidene)hydrazine-1-carboximidamide], the “hBACE 1 PIC50” value in assay [1] was 4.11 µM. In addition, the IC50 in assay [1] (read-out: hBACE 1 IC50 (μM) ± SD, mean ± SD, n = 3, FRET assay) was 76.9 ± 2.38 µM; in assay [2] (read-out: EeAChE IC50 (μM) ± SD, mean ± SD, n = 3, AChE from electric eel, Ellman assay), 195.9 ± 1.73 µM. In addition, the “EeAChE PIC50” value in assay [2] (AChE from electric eel) was 3.71 µM.

Take `[H]/N=C(/N)NN=C(/C=C/c1ccc(OC)c(OC)c1)c1cn(Cc2ccccc2)c2ccccc12` [Compound 1c, (Z)-2-((E)-1-(1-Benzyl-1H-indol-3-yl)-3-(3,4-dimethoxyphenyl)allylidene)hydrazine-1-carboximidamide]: the IC50 in assay [1] (setting [3]) is 59.51 ± 0.21 µM; in assay [1] (hBACE 1 PIC50 (μM)), 58.9 µM; in assay [2], 77.1 ± 1.54 µM.

For the compound `[H]/N=C(/N)NN=C(/C=C/c1ccc(C(C)(C)C)cc1)c1cn(Cc2ccc(-c3ccccc3)cc2)c2ccccc12` [Compound 3c, (Z)-2-((E)-1-(1-([1,1′-Biphenyl]-4-ylmethyl)-1H-indol-3-yl)-3-(4-(tert-butyl)phenyl)allylidene)hydrazine-1-carboximidamide], the figures for the IC50 in assay [1] (setting [3]), in assay [1] (hBACE 1 PIC50 (μM)) and in assay [2] were 201 ± 3.82 µM, 200 µM and 16.6 ± 1.04 µM, respectively.

As for `[H]/N=C(/N)NN=C(/C=C/c1cccc(OC)c1OC)c1cn(Cc2ccccc2)c2ccccc12` [Compound 1p, (Z)-2-((E)-1-(1-Benzyl-1H-indol-3-yl)-3-(2,3-dimethoxyphenyl)allylidene)hydrazine-1-carboximidamide], the half-maximal inhibitory concentration (IC50) was 134 ± 1.42 µM in assay [1] (setting [3]), 135 µM in assay [1] (hBACE 1 PIC50 (μM)) and 48.6 ± 1.51 µM in assay [2].

Consider `[H]/N=C(/N)NN=C(/C=C/c1ccc(C(C)(C)C)cc1)c1cn(Cc2ccc(C(F)(F)F)cc2)c2ccccc12` [Compound 3k, (Z)-2-((E)-3-(4-(tert-Butyl)phenyl)-1-(1-(4-(trifluoromethyl)benzyl)-1H-indol-3-yl)allylidene)hydrazine-1-carboximidamide], for which the IC50 in assay [1] (setting [3]) is 139 ± 1.98 µM; in assay [1] (hBACE 1 PIC50 (μM)) it was 138 µM; in assay [2], 207 ± 7.64 µM.

As to `[H]/N=C(/N)NN=C(/C=C/c1ccc(F)c(F)c1)c1cn(Cc2ccccc2)c2ccccc12` [Compound 1a, (Z)-2-((E)-1-(1-Benzyl-1H-indol-3-yl)-3-(3,4-difluorophenyl)allylidene)hydrazine-1-carboximidamide], the figures for the IC50 in assay [1] (setting [3]), in assay [1] (hBACE 1 PIC50 (μM)) and in assay [2] were 72.11 ± 0.01 µM, 72.4 µM and 77.2 ± 2.24 µM, respectively.

Consider `[H]/N=C(/N)NN=C(/C=C/c1ccccc1[N+](=O)[O-])c1cn(Cc2ccccc2)c2ccccc12` [Compound 1n, (Z)-2-((E)-1-(1-Benzyl-1H-indol-3-yl)-3-(2-nitrophenyl)allylidene)hydrazine-1-carboximidamide], for which the IC50 in assay [1] (setting [3]) was 12.3 ± 0.6 µM; in assay [1] (hBACE 1 PIC50 (μM)), 12.3 µM; in assay [2], 216 ± 3.61 µM.

For `[H]/N=C(/N)NN=C(/C=C/c1ccc(OCc2ccccc2)cc1)c1cn(Cc2cccc(OCc3ccccc3)c2)c2ccccc12` [Compound 3i, (Z)-2-((E)-1-(1-(3-(Benzyloxy)benzyl)-1H-indol-3-yl)-3-(4-(benzyloxy)phenyl)allylidene)hydrazine-1-carboximidamide], the IC50 in assay [1] (setting [3]) was 189 ± 1.91 µM; in assay [1] (hBACE 1 PIC50 (μM)), 191 µM; in assay [2] it was 26.99 ± 0.13 µM.

Consider `[H]/N=C(/N)NN=C(/C=C/c1ccc(OC)c(OC)c1)c1cn(Cc2cc(OC)cc(OC)c2)c2ccccc12` [Compound 3b, (Z)-2-((E)-1-(1-(3,5-Dimethoxybenzyl)-1H-indol-3-yl)-3-(3,4-dimethoxyphenyl)allylidene)hydrazine-1-carboximidamide], for which the IC50 in assay [1] (setting [3]) is 198 ± 3.18 µM; in assay [1] (hBACE 1 PIC50 (μM)), 200 µM; in assay [2], 22 ± 0.65 µM.
